From patent US20240206469A1, “PHOSPHORUS USE EFFICIENCY ENHANCERS AS PLANT GROWTH PROMOTORS” (EUROCHEM ANTWERPEN, priority 2021, published 2024)

Columns and labels:
[1] = tested on: SPX1 phosphate starvation biomarker; assay: Chemical activity assessment with Arabidopsis pSPX1::GUS reporter line (GUS stained area); format: in vivo, Arabidopsis thaliana
Description: (§1) All Arabidopsis plant experiments were performed using the Arabidopsis thaliana Columbia-0 background. The Arabidopsis pSPX1::GUS line is described in the Plant Journal 2008, 54: 965-975. For rice, the cultivar Nipponbare was used. For maize, the cultivars DKC 2931 and B104 were used for regular pot experiments and sand-based pot experiments, respectively. For soybean, the cultivar Primus was used. […] The medium was solidified due to the addition of 0.6% Gelrite, unless stated otherwise. In case of vertical plates (root length and root hair measurements), the medium was supplied with 0.5% of sucrose and 1 μM (low phosphate, 1 μM KH2PO4, 9.9 mM KCl), 10 μM (low phosphate 10 μM KH2PO4, 9.9 mM KCl) or 1.25 mM KH2PO4 (high phosphate). Arabidopsis seeds were stratified for 2 days at 4° C. before germination. Seedlings were germinated in climate-controlled growth chambers at 22° C. under continuous light (100 μmol m^−2 s^−1). Husked rice seeds were germinated on wetted Whatman paper for 2 days at 37° C. and then transferred to Sterivent boxes or square Petri dishes with solid medium. Maize and soybean seeds were wetted 24 hours at room temperature prior to sowing in pots.
For the chemical activity assessment 3 to 8 seeds per well of Arabidopsis pSPX1::GUS line were sown in 96-well plates containing 150 μl of low phosphate modMS liquid medium containing 1% of sucrose. Compounds were added in 50 μM concentration, starting from a 5 mM stock of compounds solved in DMSO. Different chemical substances were separately added to different wells. Per plate, 16 control wells were used, 8 containing only the low phosphate medium and 1% DMSO, and 8 containing high phosphate medium and 1% DMSO. 7 days after germination, plates were scanned using a flatbed scanner (EPSON Expression 11000XL) and analyzed for leaf size. After scanning, the growth medium was replaced by GUS staining solution (see Plant Mol. Biol. Rep. 1994, 12: 37-42 for details) and incubated for 1.5 hours at 37° C. The plates were scanned a second time and analyzed for GUS signal area. Measurements of both leaf area and GUS signal area were conducted by filtering out and measure the green and blue signal, respectively using ImageJ software. If the green leaf area was 50% or less than the control, samples were omitted. Additionally, all results were visually screened for leaf size and GUS signal.

Maize [2] = assay: Regular maize pot experiment (potting soil); format: in vivo, maize cultivar DKC 2931; conditions: low phosphate, 10 μM
Description: as §1
Regular Arabidopsis, soybean and maize pot experiments used an unfertilized potting soil, which was supplemented at the start of the experiment with 50 ml H2O containing 0.25 g/l NH4NO3 and 0.44 g/l (high phosphate) or no (maize and soybean) or 0.11 g/l KH2PO (Arabidopsis) for low phosphate conditions. […] Compound concentration was 10 μM, calculated based on the total water content after watering, and was added at the start of the experiment (Arabidopsis) or once a week (maize). […] All parameters in the sand experiment, except the rate of leaf 4 (measured the first 4 days after emergence), were measured 19 days after sowing. Measurements in the pot experiments with potting soil were done after 4 weeks of growth, except for leaf 5, which was measured at 26 days. […]

Maize [3] = assay: Maize growth experiment in pots with mixture of unfertilized potting soil and sand (leaf 5); format: in vivo; conditions: maize, pots with unfertilized potting soil and sand, after 29 days; control 38.1
Description: For a subset of compounds, we performed a more extensive analysis on their root hair inducing effect in a dose-response experiment (Table 3). This confirms that the more simple structures 8.14 and 8.14.6 still retain the activity of compound 8. […] To validate this, we performed a maize growth experiment using compound 8 and the, based on the increase of total root hair length, stronger variant 8.14.6. The experiment was conducted in pots with a mixture of unfertilized potting soil and sand, and leaf 5 was measured after 29 days (Table 4).

SMILES: CC1CN(CC(=O)c2c(N)n(C)c(=O)n(C)c2=O)c2ccccc2O1 (stereo not drawn) [Compound 8, 6-amino-1,3-dimethyl-5-[2-(2-methyl-2,3-dihydro-1,4-benzoxazin-4-yl)acetyl]pyrimidine-2,4-dione]
- Suppression of the SPX1 biomarker (GUS staining) ([1]; 7 days of growth in low phosphate, confirmed in two experimental repeats): practically completely suppressed the SPX1 biomarker
- GUS (SPX1) stained area normalized to the number of seeds ([1]; low phosphate, 50 μM, 7 days after germination, compare with low phosphate controls of same plate (Table 5 c3)): 26 pixels
- Shoot weight (Maize [2]; 4 weeks, control 4): 4.6 g
- Plant height (Maize [2]; 4 weeks, control 57): 60 cm
- Leaf 5 (Maize [2]; 26 days, control 40): 48 cm
- Leaf 5 (Maize [3]): 39.4 cm
